Data published in PMC6987120, “Structural insights into ATP hydrolysis by the MoxR ATPase RavA and the LdcI-RavA cage-like complex” (Communications Biology, 2020).

Experiments:
RavA = target: T1, RavA (Escherichia coli, UniProt P31473); assay: cryo-EM, […] and […] A maps with flexible fitting; assay type: binding; details: 1 mM ADP; intersubunit site; spiral with five ADP, closed ring with four ADP per hexamer
T1 construct: homohexamer (6 copies), open spiral and C2-symmetric closed ring; site at the interface of adjacent monomers

LdcI–RavA complex [1] = target: T2, LdcI–RavA complex (Escherichia coli, UniProt P31473); assay: cryo-EM, […] and […] A maps with flexible fitting; assay type: binding; details: 2 mM ADP, 10 mM MgCl2, 0.1 mM PLP, pH 7.9; low local resolution of RavA
T2 construct: purified RavA and LdcI mixed in vitro; LdcI expressed in a ppGpp-null E. coli MG1655 host; with Inducible lysine decarboxylase

LdcI–RavA complex [2] = target: T2, LdcI–RavA complex; assay: ATPase assay, inorganic phosphate by Fiske and Subbarow; assay type: biochemical; details: 2 mM ATP, 10 mM MgCl2, 50 mM MES/Tris pH 5-9, 25 °C; three-fold molar excess of LdcI

T2 sequence (P31473 whole entry): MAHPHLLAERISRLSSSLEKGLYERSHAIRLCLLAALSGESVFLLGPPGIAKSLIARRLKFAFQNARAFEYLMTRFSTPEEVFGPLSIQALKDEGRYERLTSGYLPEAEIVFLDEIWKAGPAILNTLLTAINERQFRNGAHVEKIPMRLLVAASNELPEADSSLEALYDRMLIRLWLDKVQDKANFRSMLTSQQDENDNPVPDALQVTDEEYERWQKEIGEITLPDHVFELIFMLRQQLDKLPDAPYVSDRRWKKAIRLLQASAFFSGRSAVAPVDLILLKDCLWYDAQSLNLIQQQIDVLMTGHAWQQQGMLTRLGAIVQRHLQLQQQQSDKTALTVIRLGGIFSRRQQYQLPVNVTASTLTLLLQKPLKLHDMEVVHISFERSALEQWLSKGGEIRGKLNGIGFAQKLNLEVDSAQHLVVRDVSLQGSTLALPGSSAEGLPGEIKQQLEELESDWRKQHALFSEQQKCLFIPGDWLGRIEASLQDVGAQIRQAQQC
T2 sequence (P0A9H3 whole entry partner): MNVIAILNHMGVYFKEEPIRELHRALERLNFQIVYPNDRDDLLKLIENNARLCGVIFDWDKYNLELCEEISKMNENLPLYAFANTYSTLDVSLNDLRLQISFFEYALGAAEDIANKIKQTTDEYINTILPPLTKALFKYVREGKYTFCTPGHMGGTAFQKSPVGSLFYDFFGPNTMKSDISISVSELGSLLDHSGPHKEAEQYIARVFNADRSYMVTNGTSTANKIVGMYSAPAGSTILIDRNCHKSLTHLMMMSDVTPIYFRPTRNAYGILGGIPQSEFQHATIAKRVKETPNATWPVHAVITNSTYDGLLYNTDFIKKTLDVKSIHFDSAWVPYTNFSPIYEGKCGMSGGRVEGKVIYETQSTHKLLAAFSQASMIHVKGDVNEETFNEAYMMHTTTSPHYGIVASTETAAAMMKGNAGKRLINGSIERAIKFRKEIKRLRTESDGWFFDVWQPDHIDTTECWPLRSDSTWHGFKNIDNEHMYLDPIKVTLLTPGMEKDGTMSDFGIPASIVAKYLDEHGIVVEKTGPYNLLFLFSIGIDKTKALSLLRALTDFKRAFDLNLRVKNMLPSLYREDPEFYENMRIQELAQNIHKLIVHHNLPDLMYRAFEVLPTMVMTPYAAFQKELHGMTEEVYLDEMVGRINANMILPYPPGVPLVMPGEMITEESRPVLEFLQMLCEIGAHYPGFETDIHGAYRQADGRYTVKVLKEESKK
T1 sequence (P31473 whole entry): as the sequence (P31473 whole entry) above

Nc1ncnc2c1ncn2[C@@H]1O[C@H](COP(=O)(O)OP(=O)(O)O)[C@@H](O)[C@H]1O [ADP]
cryo-EM, 5.96 and 6.94 A maps with flexible fitting (RavA): The map contains densities attributed to five ADP molecules bound to the interface | cryo-EM, 7.6 and 7.8 A maps with flexible fitting (LdcI–RavA complex [1]): Cryo-EM maps of the two classes of the LdcI–RavA complex in ADP-bound state

Nc1ncnc2c1ncn2[C@@H]1O[C@H](COP(=O)(O)OP(=O)(O)OP(=O)(O)O)[C@@H](O)[C@H]1O [ATP]
ATPase assay, inorganic phosphate by Fiske and Subbarow (LdcI–RavA complex [2]): RavA is still able to efficiently hydrolyse ATP in the LdcI–RavA cage
